How the values were obtained:
Assay in all cases: relative viability (nuclei count vs DMSO), 5 days (fraction); higher = more cells survive
[1] = compound: C=C(c1ccc(C(=O)O)cc1)c1cc2c(cc1C)C(C)(C)CCC2(C)C [Bexarotene]
How it was run: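 Only plates meeting two conditions passed: control CV below 25% and at least one doubling. Lung cancer cell lines, kept overnight at 37 °C in 1536-well plates, were pinned with five library-drug doses (not always all listed) √10 apart on vehicle-anchored plates and grown 5 days without medium change. A one-step fix, permeabilisation and Hoechst stain preceded 4× imaging and MetaXpress nuclear counting. Viability equals treated-well nuclei divided by vehicle-well nuclei, as the median over plates.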

[2] = compound: C=C(c1ccc(C(=O)O)cc1)c1cc2c(cc1C)C(C)(C)CCC2(C)C [Bexarotene] + CC1(C)CCC(c2ccc(Cl)cc2)=C(CN2CCN(c3ccc(C(=O)NS(=O)(=O)c4ccc(N[C@H](CCN5CCOCC5)CSc5ccccc5)c(S(=O)(=O)C(F)(F)F)c4)cc3)CC2)C1 [Navitoclax] (partner 0.5 µM)
How it was run: (§1)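 Lung cancer cell lines in 1536-well plates got either a single drug or a fixed anchor-drug dose together with five library-drug doses (not always all listed) in √10 steps, by pin tool, on the day after seeding. Nuclei were counted after 5 days, and relative viability is the treated-to-vehicle ratio of nuclei counts. Values are medians of duplicate plates.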

[3] = compound: C=C(c1ccc(C(=O)O)cc1)c1cc2c(cc1C)C(C)(C)CCC2(C)C [Bexarotene] + Cc1cc(Nc2cc(N3CCN(C)CC3)nc(Sc3ccc(NC(=O)C4CC4)cc3)n2)n[nH]1 [Tozasertib] (partner 0.1 µM)
How it was run: as §1

[4] = compound: C=C(c1ccc(C(=O)O)cc1)c1cc2c(cc1C)C(C)(C)CCC2(C)C [Bexarotene] + N=C(N)NC(=N)NCCc1ccccc1 [Phenformin] (partner 250 µM)
How it was run: as §1

Cell Line | relative viability ([1]; 0.08 µM) | relative viability ([1]; 0.253 µM) | relative viability ([1]; 0.8 µM) | relative viability ([1]; 2.53 µM) | relative viability ([1]; 8 µM) | relative viability ([2]; first compound 0.08 µM) | relative viability ([2]; first compound 0.253 µM) | relative viability ([2]; first compound 0.8 µM) | relative viability ([2]; first compound 2.53 µM) | relative viability ([2]; first compound 8 µM) | relative viability ([3]; first compound 0.08 µM) | relative viability ([3]; first compound 0.253 µM) | relative viability ([3]; first compound 0.8 µM) | relative viability ([3]; first compound 2.53 µM) | relative viability ([3]; first compound 8 µM) | relative viability ([4]; first compound 0.08 µM) | relative viability ([4]; first compound 0.253 µM) | relative viability ([4]; first compound 0.8 µM) | relative viability ([4]; first compound 2.53 µM) | relative viability ([4]; first compound 8 µM)
NCI-H596 | 0.956 | 0.848 | 0.957 | 0.994 | 0.919 | 1.02 | 0.85 | 0.707 | 0.973 | 0.829 | 0.998 | 0.897 | 0.788 | 0.934 | 0.837 | 0.811 | 0.743 | 0.747 | 0.828 | 0.776
NCI-H647 | 1.03 | 1.08 | 0.896 | 0.924 | 0.874 | 1.32 | 1.35 | 1.2 | 1.15 | 1.1 | 0.351 | 0.432 | 0.257 | 0.279 | 0.324 | 0.588 | 0.472 | 0.519 | 0.53 | 0.43
NCI-H727 | 0.961 | 0.978 | 0.916 | 1.05 | 1.04 | 0.467 | 0.38 | 0.452 | 0.354 | 0.405 | 0.622 | 0.584 | 0.76 | 0.64 | 0.618 | 0.51 | 0.481 | 0.574 | 0.515 | 0.503
NCI-H838 | 1.04 | 1.03 | 1.04 | 1.04 | 0.996 | 1.13 | 1.33 | 1.23 | 1.32 | 1.22 | 0.269 | 0.301 | 0.267 | 0.278 | 0.271 | 0.585 | 0.595 | 0.504 | 0.608 | 0.634
NCI-H1355 | 1.11 | 1.04 | 0.945 | 0.979 | 0.96 | 1.03 | 0.998 | 0.928 | 1.17 | 0.84 | 0.492 | 0.531 | 0.54 | 0.492 | 0.512 | 0.467 | 0.481 | 0.433 | 0.404 | 0.447
NCI-H1395 | 1.06 | 0.905 | 1.01 | 0.75 | 0.957 | 1.19 | 1.11 | 1.05 | 1.07 | 1.1 | 0.754 | 0.77 | 0.746 | 0.687 | 0.799 | 0.456 | 0.457 | 0.412 | 0.415 | 0.471
NCI-H1437 | 1.04 | 1.01 | 1.03 | 0.996 | 1.01 | 1.08 | 1.15 | 1.06 | 1.07 | 0.953 | 0.382 | 0.395 | 0.396 | 0.421 | 0.382 | 0.307 | 0.327 | 0.301 | 0.392 | 0.32
NCI-H1650 | 1.01 | 0.897 | 0.912 | 0.785 | 0.844 | 1.37 | 1.4 | 1.34 | 1.21 | 1.3 | 0.483 | 0.541 | 0.55 | 0.397 | 0.419 | 0.392 | 0.408 | 0.463 | 0.46 | 0.403

Source: the supplement of paper PMC10307832
